One data set relates to MES seizures, mice. Description: Maximal electroshock (MES) seizure test. The format is in vivo. Particulars: Mus musculus, ip; for responders at 100 mg/kg: 0.5 h, i.p.; for ED50: at TPE (0.5 h; LTG 1.0 h), 95% confidence intervals in parentheses.
Data set [1] relates to formalin-induced nociceptive response, mice. Description: Formalin test of tonic pain. The format is in vivo. Particulars: for ED50: Mus musculus, ip, i.p. 30 min before test. How it is done: AEDs are also commonly used in the treatment of neuropathic pain and other central pain conditions. Therefore, with an aim of further pharmacological characterization of compounds described herein, we decided to study their antinociceptive properties in the in vivo assays. […] At first, both aforementioned compounds were tested in the formalin-induced tonic pain model, which is recognized as a valuable screening tool. In this test, the injection of formalin into the plantar surface of the mouse paw produces specific behaviors like paw lifting, flinching, and licking. […] Moreover, it has been reported that formalin induces pathological changes that resemble those observed in nerve injury and neuropathic pain [24]. Thus, this test has been successfully used to assess the analgesic efficacy of a variety of compounds such as opioids, nonsteroidal anti-inflammatory drugs (NSAIDs), corticosteroids, and N-methyl-D-aspartate (NMDA) receptor antagonists, as well as AEDs such as carbamazepine, topiramate, or gabapentin [26, 27].
As mentioned above, we investigated the analgesic properties of two of the most promising and interesting compounds: 4 and 30.
The experimental groups consisted of 6–12 adult male Albino Swiss mice (CD-1, 18–25 g). Each animal was tested only once. Immediately after the assay, the animals were sacrificed by cervical dislocation. Behavioral measurements were observed by trained observers. The in vivo antinociceptive assays were in accordance with Polish regulations and European Union Directive of 22 September 2010 (2010/63/EU). All procedures were carried out according to the rules of the International Council on Laboratory Animal Science (ICLAS) and were approved by the Local Ethical Committee in Cracow, Poland (approval No 104/2015, 111/2016, and 179/2017). The tested substances were suspended in 1% aqueous solution of Tween-80 and were injected i.p. 30 min prior to the test. Control group animals (negative control) were administered with an appropriate amount of vehicle (Tween-80, 1% aqueous solution, i.p.) 30 min prior to the test.
The experimental in vivo procedures were previously reported for the formalin test; compounds 4 and 30 were tested in three doses—40, 80, 120 mg/kg (4), and 20, 40, 80 mg/kg (30). […] The in vivo procedure for the model of capsaicin-induced nociception was previously reported; the animals were pretreated with vehicle (10 mL/kg, negative control) and the dose–response of investigated compounds was evaluated at 40, 80, 120 mg/kg (4), and 20, 40, 80 mg/kg (30). […]
Data are presented as means ± standard error of the mean (SEM). […] Statistically significant differences between groups were calculated using one-way analysis of variance (ANOVA) and the post hoc Dunnett’s multiple comparison test or two-way analysis of variance (ANOVA). […]

Another data set addresses T1, Cav1.2 channel (Rattus norvegicus, UniProt P22002).
T1 construct: tissue Eurofins (Poitiers, France), contract assay; host or cells: rat cerebral cortex (own knowledge of the vendor's assay)
Description: Radioligand binding, Cav1.2 channel. Also on record: inhibition: dose or concentration left out as unconfirmed. Particulars: for inhibition: rat cerebral cortex, read-out: % Inhibition of Control Specific Binding, Cav1.2 Channel (Antagonist Radioligand). How it is done: (§1) Taking into consideration the structural similarities of molecules described in the current manuscript with their chemical prototypes AS-1 and DK-1, the binding studies toward aforementioned molecular targets were performed commercially for several active substances from each subseries (3, 4, 21, 24, 25, 27, 29, and 30). Furthermore, we also tested two other and well-known targets for AEDs, namely, the Cav2.2 (N-type) calcium channel and gamma-aminobutyric acid (GABA)-A receptor. With the aim of excluding potentially dangerous proarrhythmic properties for each compound, their interaction with the potassium (hERG) channel was also tested.
(§2) Binding studies were carried out commercially in Eurofines Laboratories (Poitiers, France). The functional assays were performed in Eurofins Panlabs Discovery Services Taiwan, Ltd. (New Taipei City, Taiwan). All procedures are described elsewhere (for details, see Table S4 in Supplementary Materials).
(§3) Binding studies were carried out commercially in Eurofines Laboratories (Poitiers, France). The
(§4) functional assays were performed in Eurofins Panlabs Discovery Services Taiwan, Ltd. (New Taipei
(§5) City, Taiwan). All procedures are described elsewhere (Table S4).
(§6) Table S4. In vitro binding and functional assays.
(§7) GABA-A receptor (α1,β2,γ2)
(§8) Potassium channel (hERG) 14
(§9) Cav1.2 (h) calcium ion channel cell based antagonist calcium flux assay 16,17

Data set [2] concerns the target T2, GABA-A receptor (α1,β2,γ2) (Homo sapiens, UniProt P14867+P47870).
T2 construct: Eurofins (Poitiers, France), contract assay
Description: Radioligand binding, GABA-A receptor. Also on record: dose or concentration left out as unconfirmed. Particulars: rat cerebral cortex; read-out: % Inhibition of Control Specific Binding, GABA-A Receptor (α1,β2,γ2) (Agonist Radioligand). How it is done: as §1, §2, §3, §4, §5, §6, §7, §8, §9

Data set [3] is described as follows: Metabolic stability in human liver microsomes. The format is in vitro ADME. As to conditions: 120 min incubation with HLMs. From the text:
Human liver microsomes (HLMs) were used for metabolic stability determination. Moreover, the most probable phase I reactions and structures of metabolites were proposed according to ion fragment analyses with the in silico support of MetaSite 6.0.1 software. […] On the other hand, an excellent metabolic stability of compound 24 was observed. Less than 4% of this derivative was converted into double-hydroxylated metabolite M1 (Figures S3, S4, and S7, Supplementary Materials). Finally, two monohydroxylated metabolites (M1, M2) were found in the reaction mixture with HLMs and 30, and around 17% of this compound was metabolized (Figures S5–S7, Supplementary Materials).
These assays were performed on human liver microsomes (HLMs), purchased from Sigma-Aldrich (St. Louis, MO, USA), according to [14].

Data set [4] is described as follows: Rotarod test for acute neurological toxicity. Particulars: mouse, in vivo, ip. A general note: In the rotarod test animals must keep their balance on a rotating rod.
For data set [5], the system named is motor coordination of mice. In words: Rotarod test for acute neurological toxicity. Particulars: for Rotarod test, number of mice / number of mice tested: i.p., 100 mg/kg, 0.5 h.
The nature of data set [6]: Parallel artificial membrane permeability assay (PAMPA). In general terms: The PAMPA barrier holds no transporters, so it reflects passive diffusion.
Description: Passive diffusion was tested in the parallel artificial membrane permeability assay (PAMPA) and expressed as the permeability coefficient (Pe). A highly permeable compound, caffeine (CFN), and a poorly permeable compound, norfloxacin (NFX), were used as the references.
Precoated PAMPA Plate System Gentest™ was provided by Corning, (Tewksbury, MA, USA).
Setting [7] is: read-out: MES test, number of mice protected / number of mice tested (converted).
The mark [8] stands for this setting: phase II 15–30 min, read-out: ED50, formalin test phase II.

“And” between values parts separate entries of the source, which are not always exact repeats. Equal entries are not always repeated. Where two headings read alike, the source gives them in different places.

One may read the ED50 as the dose at which the effect has come halfway, by size or by number of responders. What is called inhibition is the share of the control response that was lost under treatment. The term TD50 denotes the 50% point of the dose-response relation for the toxic effect studied. In general, Papp refers to a coefficient for how fast a substance crosses the barrier.

T1 sequence (P22002 whole entry): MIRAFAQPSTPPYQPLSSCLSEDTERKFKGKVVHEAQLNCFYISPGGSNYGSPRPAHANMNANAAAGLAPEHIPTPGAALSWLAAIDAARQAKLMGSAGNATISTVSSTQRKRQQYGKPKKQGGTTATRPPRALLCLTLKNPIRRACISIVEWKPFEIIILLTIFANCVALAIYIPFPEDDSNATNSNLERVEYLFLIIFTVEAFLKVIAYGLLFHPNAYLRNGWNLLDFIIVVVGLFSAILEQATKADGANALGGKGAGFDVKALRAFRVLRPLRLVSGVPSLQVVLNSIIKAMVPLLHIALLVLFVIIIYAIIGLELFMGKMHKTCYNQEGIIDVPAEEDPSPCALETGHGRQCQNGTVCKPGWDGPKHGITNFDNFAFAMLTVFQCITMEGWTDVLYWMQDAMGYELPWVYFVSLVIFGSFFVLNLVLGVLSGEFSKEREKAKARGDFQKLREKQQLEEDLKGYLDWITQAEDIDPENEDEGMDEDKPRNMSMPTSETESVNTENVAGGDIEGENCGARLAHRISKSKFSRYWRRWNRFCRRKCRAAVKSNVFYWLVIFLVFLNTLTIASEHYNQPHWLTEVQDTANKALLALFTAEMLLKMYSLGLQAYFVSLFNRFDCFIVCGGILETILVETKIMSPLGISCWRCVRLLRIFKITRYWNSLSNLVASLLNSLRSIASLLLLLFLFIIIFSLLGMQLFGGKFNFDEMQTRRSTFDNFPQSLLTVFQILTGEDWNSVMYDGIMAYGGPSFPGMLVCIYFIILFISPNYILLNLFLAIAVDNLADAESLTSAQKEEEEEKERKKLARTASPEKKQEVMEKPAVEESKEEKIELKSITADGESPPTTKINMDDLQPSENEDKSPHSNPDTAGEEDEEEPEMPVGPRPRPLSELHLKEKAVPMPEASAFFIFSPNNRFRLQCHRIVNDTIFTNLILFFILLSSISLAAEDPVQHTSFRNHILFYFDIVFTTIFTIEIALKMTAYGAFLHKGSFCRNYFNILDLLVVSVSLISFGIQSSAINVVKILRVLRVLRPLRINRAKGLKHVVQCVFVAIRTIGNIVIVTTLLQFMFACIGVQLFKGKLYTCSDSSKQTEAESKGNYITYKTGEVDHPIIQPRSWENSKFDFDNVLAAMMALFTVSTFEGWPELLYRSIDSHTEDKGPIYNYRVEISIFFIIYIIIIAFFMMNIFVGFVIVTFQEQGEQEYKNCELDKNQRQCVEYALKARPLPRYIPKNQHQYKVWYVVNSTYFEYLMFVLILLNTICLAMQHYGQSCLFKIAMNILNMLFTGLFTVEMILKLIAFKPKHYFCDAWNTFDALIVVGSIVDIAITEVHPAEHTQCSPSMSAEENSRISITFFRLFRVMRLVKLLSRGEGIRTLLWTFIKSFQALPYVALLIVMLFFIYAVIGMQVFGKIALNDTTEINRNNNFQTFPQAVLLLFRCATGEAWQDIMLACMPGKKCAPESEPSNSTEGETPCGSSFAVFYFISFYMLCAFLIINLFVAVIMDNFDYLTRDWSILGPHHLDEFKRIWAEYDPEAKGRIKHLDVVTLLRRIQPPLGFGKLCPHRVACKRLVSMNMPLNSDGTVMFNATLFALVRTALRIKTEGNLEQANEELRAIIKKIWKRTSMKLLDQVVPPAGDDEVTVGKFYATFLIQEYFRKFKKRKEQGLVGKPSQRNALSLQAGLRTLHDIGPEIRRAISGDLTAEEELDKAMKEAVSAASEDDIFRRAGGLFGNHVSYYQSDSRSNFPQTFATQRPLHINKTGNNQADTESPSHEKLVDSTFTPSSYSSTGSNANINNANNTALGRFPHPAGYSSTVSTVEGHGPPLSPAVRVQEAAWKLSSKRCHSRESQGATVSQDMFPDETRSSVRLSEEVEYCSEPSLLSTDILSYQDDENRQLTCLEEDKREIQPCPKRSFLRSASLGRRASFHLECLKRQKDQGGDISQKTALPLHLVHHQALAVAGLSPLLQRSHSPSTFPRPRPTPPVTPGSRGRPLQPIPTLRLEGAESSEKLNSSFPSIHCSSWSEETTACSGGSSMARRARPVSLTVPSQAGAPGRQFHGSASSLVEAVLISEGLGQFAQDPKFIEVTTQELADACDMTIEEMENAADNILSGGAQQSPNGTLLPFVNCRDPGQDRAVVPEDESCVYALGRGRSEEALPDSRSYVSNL
T1 sequence (P54287 whole entry partner): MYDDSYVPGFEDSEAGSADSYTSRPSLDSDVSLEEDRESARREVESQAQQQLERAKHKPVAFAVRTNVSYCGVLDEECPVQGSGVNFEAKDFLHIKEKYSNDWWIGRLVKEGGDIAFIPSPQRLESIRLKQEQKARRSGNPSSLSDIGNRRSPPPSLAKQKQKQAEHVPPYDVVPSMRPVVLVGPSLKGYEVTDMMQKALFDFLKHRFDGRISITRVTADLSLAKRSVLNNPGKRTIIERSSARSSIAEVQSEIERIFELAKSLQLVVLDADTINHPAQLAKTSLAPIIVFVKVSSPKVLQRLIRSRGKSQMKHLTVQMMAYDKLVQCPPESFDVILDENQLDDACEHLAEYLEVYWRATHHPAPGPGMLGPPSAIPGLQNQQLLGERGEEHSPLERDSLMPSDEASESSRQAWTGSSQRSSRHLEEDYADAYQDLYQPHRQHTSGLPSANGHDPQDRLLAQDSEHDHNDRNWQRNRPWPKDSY
T1 sequence (P54290 25-944 partner limits assumed): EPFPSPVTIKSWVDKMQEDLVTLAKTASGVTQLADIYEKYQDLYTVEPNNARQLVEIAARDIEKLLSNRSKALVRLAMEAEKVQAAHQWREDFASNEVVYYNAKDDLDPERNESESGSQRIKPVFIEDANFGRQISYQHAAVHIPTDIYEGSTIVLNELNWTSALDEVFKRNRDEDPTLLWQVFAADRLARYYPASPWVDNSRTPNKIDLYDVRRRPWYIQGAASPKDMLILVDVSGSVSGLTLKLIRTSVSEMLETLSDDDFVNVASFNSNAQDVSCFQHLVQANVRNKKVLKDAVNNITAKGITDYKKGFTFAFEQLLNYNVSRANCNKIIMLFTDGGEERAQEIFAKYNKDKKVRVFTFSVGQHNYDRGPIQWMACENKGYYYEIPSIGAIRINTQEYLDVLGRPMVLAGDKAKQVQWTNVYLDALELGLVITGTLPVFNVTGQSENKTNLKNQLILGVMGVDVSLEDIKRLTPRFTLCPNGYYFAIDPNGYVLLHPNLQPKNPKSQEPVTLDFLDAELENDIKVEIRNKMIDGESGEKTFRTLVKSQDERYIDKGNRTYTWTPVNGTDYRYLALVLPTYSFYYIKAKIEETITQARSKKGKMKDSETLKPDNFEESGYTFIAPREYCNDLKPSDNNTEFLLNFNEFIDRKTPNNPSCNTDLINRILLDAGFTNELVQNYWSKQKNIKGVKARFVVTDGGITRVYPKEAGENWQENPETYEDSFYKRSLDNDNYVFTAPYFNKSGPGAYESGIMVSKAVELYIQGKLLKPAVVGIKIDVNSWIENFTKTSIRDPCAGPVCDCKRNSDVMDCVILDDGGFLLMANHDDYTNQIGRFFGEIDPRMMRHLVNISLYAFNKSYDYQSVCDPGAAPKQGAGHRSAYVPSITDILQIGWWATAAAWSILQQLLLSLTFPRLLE
T1 sequence (P54290 945-1091 partner limits assumed): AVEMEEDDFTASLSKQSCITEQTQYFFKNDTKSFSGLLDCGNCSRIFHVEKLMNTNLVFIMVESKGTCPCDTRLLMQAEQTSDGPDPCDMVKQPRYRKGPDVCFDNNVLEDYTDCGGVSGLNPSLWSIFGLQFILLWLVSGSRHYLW
T2 sequence (P14867 28-456): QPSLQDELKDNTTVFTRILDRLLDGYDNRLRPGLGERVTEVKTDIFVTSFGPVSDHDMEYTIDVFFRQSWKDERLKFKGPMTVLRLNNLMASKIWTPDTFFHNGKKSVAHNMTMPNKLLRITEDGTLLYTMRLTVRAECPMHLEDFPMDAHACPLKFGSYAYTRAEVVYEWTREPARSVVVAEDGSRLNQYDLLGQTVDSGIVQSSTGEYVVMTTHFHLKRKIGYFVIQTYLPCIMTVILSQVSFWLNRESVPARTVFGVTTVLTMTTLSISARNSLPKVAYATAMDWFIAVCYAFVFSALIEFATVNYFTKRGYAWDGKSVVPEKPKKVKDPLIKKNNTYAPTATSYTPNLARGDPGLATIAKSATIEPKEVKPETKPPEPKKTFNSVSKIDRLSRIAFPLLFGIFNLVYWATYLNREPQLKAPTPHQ
T2 sequence (P47870 25-512 limits assumed): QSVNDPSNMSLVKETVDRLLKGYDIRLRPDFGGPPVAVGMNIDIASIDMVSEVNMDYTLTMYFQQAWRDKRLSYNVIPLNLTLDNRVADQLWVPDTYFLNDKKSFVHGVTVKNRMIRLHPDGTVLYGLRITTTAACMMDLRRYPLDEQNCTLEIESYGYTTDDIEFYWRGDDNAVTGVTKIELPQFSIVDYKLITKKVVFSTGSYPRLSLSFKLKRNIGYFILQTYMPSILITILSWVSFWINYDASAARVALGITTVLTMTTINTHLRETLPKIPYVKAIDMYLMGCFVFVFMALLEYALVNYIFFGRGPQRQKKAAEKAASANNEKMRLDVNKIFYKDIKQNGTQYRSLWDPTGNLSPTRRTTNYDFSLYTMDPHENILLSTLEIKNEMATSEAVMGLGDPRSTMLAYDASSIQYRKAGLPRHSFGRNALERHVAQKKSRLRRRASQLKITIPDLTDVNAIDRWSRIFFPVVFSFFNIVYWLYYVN
T2 sequence (P18507 40-475 partner): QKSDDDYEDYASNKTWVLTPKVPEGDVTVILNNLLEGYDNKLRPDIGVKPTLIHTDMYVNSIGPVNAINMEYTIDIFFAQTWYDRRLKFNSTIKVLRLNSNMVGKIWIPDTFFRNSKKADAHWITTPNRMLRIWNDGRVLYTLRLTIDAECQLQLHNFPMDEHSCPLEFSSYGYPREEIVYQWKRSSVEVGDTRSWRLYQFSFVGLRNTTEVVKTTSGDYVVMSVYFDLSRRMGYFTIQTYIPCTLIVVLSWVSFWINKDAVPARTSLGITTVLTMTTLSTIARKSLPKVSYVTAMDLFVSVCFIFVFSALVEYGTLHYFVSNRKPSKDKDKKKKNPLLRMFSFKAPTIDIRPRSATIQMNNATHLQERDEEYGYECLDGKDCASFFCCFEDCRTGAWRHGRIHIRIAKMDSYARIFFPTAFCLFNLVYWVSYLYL

As for `O=C(Nc1ccccc1F)C(c1ccccc1)N1C(=O)CCC1=O` (stereo not drawn) [Compound 4, 2-(2,5-Dioxopyrrolidin-1-yl)-N-(2-fluorophenyl)-2-phenylacetamide], the responders at 100 mg/kg in the data set with MES seizures, mice (setting [7]) is 100%. For the same molecule, the ED50 in the data set with MES seizures, mice was determined as 73.2 mg/kg; in data set [1] (setting [8]), 98.9 mg/kg. For the same molecule, in data set [1] (i.p., doses 40, 80, 120 mg/kg), the “attenuation of nociceptive response, formalin test first phase” value is on record as “statistically significant only at the highest dose of 120 mg/kg”. The inhibition at Cav1.2 channel was 5%; in data set [2], 2.8%. For the same molecule, the “parent compound remained in the reaction mixture” value in data set [3] is 71.44% and 71.4%. This molecule also showed a TD50 at 0.5 h in data set [4] greater than 300 mg/kg. Besides, the “impairment of motor coordination of mice” value in data set [5] (doses as high as 300 mg/kg) is “did not impair motor coordination”. Besides, the “Rotarod test, number of mice / number of mice tested” value in data set [5] is recorded as 0/4. In addition, in data set [6], the Papp stood at 11.2 ± 0.7 ×10⁻⁶ cm/s.

Regarding `O=C(NCCc1cccc(OC(F)(F)F)c1)C(c1ccccc1)N1C(=O)CCC1=O` (stereo not drawn) [Compound 30, 2-(2,5-Dioxopyrrolidin-1-yl)-2-phenyl-N-(3-(trifluoromethoxy)phenethyl)acetamide], the responders at 100 mg/kg with MES seizures, mice (groups of four, read-out: protection in the MES test) was 100%; in the data set with MES seizures, mice (setting [7]) it was 100%. Further, the ED50 in the data set with MES seizures, mice is 45.6 mg/kg; in data set [1] (phase I 0–5 min, read-out: ED50, formalin test phase I) it was 21.5 mg/kg; in data set [1] (setting [8]), 24.8 mg/kg. Further, the “binding to voltage-gated calcium channels Cav1.2” value on Cav1.2 channel (concentration of 10 µM) is recorded as “moderate binding”. Moreover, the inhibition stood at 47.6% on Cav1.2 channel and 0.3% in data set [2]. Further, the “compound converted into metabolites / metabolized” value in data set [3] was “around 17%”. Besides, the “parent compound remained in the reaction mixture” value in data set [3] is on record as 83.39%. Also, in data set [4], the TD50 at 0.5 h turned out to be 162 mg/kg. Besides, the “Rotarod test, number of mice / number of mice tested” value in data set [5] was 0/4. For the same molecule, in data set [6], the Papp was 13.2 ± 1.5 ×10⁻⁶ cm/s.
